Key:
[1] = system: human normal mammary epithelial cells (HMECs); assay: XTT cell viability, normal mammary epithelial cells; format: cell-based; details: 72 h
Experimental: (§1) FIG. 21. DRAs have no effect on cell viability in human normal mammary epithelial cells (HMECs), HMECs were treated with DRA11, DRA9 and DRA9S for 72 h. At the end of incubation period, cell viability was measured by XTT assay. Data represent the mean±S.D. Control refers to group treated with DMSO (0.01%).
(§2) FIGS. 60 A, B & C. DRAs has no effect on cell viability of human normal mammary, prostate and lung epithelial cells. Human normal mammary (FIG. 60A), prostate (FIG. 60B) and lung (FIG. 60C) epithelial cells were treated with DRA11 (0-25 μM) for 72 h, and cell viability was measured by XTT assay.
(§3) XTT Assay. Cells (1×10^4 cells per well) were seeded in 96-well plates (flat bottom), and treated with death receptor agonists/activators/small molecules in the presence or absence of TNF-related apoptosis inducing ligand (TRAIL). Plates were incubated for various time points at 37° C. and 5% CO2. […] The spectrophotometric absorbance of the sample was measured using a microtitre plate (ELISA) reader. The wavelength to measure absorbance of the formazan product was 450 nm, and the reference wavelength was 650 nm.
HMECs were treated with DRA11, DRA9 and DRA9S for 72 h. At the end of incubation period, cell viability was measured by XTT assay. […]

[2] = system: human bronchial epithelial cells (Beas2B); assay: XTT cell viability, bronchial epithelial cells; format: cell-based; details: 72 h
Experimental: as §1, with “23.” for “21.”, “bronchial” for “normal mammary”, “(Beas2B). Beas2B cells” for “(HMECs), HMECs”
(§4) XTT Assay. Cells (1×10^4 cells per well) were seeded in 96-well plates (flat bottom), and treated with death receptor agonists/activators/small molecules in the presence or absence of TNF-related apoptosis inducing ligand (TRAIL). Plates were incubated for various time points at 37° C. and 5% CO2. Before the end of the experiment, 50 μl XTT (sodium 3′[1-(phenylaminocarbonyl)-3,4-tetrazolium]-bis(4-methoxy-6-nitro) benzene sulfonic acid hydrate) labeling mixture (final concentration, 125 μM sodium XTT and 25 μM PMS) per well was added and plates were incubated for a further 4 h at 37° C. and 5% CO2. The spectrophotometric absorbance of the sample was measured using a microtitre plate (ELISA) reader. The wavelength to measure absorbance of the formazan product was 450 nm, and the reference wavelength was 650 nm.
Beas2B cells were treated with DRA11, DRA9 and DRA9S for 72 h. At the end of incubation period, cell viability was measured by XTT assay. See, for example, FIG. 23. Data represent the mean ±S.D. Control refers to group treated with DMSO (0.01%).

[3] = system: prostate cancer PC-3 cells xenografted; assay: PC-3 xenograft tumor growth; format: in vivo, Balb c nude mice; details: 40 mg/kg iv, 5 days per week
Experimental: (§5) FIG. 26. […] PC-3 cells (2×10^6 cells, in a final volume of 0.1 ml) were injected subcutaneously in the right flank of Balb c nude mice. After tumor formation (about 100 mm^3), nude mice were treated (iv) with vehicle control (0.1 ml normal saline), DRA11 (20 mg/kg, 0.1 ml volume), DRA11 (30 mg/kg, 0.1 ml volume), and DRA11 (40 mg/kg, 0.1 ml volume) everyday 5 days per week throughout the duration of the experiment. Tumor volume was calculated using the equation: (volume=length×width×depth×0.5236 mm^3). Data represent mean±S.E.
as §5, with “29.” for “26.”, “(1×10^6” for “(2×10^6”, “ml PBS)” for “ml)”, “saline),” for “saline), DRA11 (20 mg/kg, 0.1 ml volume), DRA11 (30 mg/kg, 0.1 ml volume),”, “DRA9S” for “DRA11”, “Data represent mean±S.E.” left out
PC-3 cells (2×10^6 cells, in a final volume of 0.1 ml) were injected subcutaneously in the right flank of Balb c nude mice. […] Tumor volume was calculated using the equation: (volume=length×width×depth×0.5236 mm^3). […]
PC-3 cells (1×10^6 cells, in a final volume of 0.1 ml PBS) were injected subcutaneously in the right flank of Balb c nude mice. […] Tumor volume was calculated using the equation: (volume=length×width×depth×0.5236 mm^3). […]

normal human hepatocytes = assay: XTT cell viability, normal hepatocytes; format: cell-based; details: 0, 1, 3, 5 and 10 μM, 72 h
Experimental: FIGS. 59 A, B & C. DRAs has no effect on cell viability of normal human hepatocytes. Normal human hepatocytes were incubated with various concentrations of DRA11 (0, 1, 3, 5 and 10 μM) (FIG. 59A), DRA9S (0, 1, 3, 5 and 10 μM) (FIG. 59B), and DRA9 (0, 1, 3, 5 and 10 μM) (FIG. 59C) for 72 h. At the end of incubation period, cell viability was measured by XTT assay.
as §4

[4] = system: human normal prostate epithelial cells (PrECs); assay: XTT cell viability, normal prostate epithelial cells; format: cell-based; details: 72 h
Experimental: as §1, with “22.” for “21.”, “prostate” for “mammary”, “(PrECs). PrECs” for “(HMECs), HMECs”
as §2, §3
PrECs were treated with DRA11, DRA9 and DRA9S for 72 h. At the end of incubation period, cell viability was measured by XTT assay. […]

Compound | effect on cell viability in HMECs [1] | effect on cell viability in Beas2B cells [2] | growth of xenografted PC-3 tumors (tumor volume) [3] | effect on cell viability of normal human hepatocytes (normal human hepatocytes) | effect on cell viability in PrECs [4]
CCOc1cc(Br)c(Br)c(/C=N/c2cccc(C(=O)O)c2C)c1O [DRA9S] | no effect | no effect | inhibits growth | no effect | no effect
CCOc1cc(Br)c(Br)c(/C=N/c2cccc(C(=O)O)c2)c1O [DRA9] | no effect | no effect | – | no effect | no effect

— patent US7915245B2, “Methods and compositions of trail-death receptor agonists/activators” (The Board of Regents of the University of Texas System, priority 2007, dated 2011)
